Measurements published in ChEMBL document CHEMBL3784920, “Synthesis and Pharmacological Evaluation of Novel Adenine-Hydrogen Sulfide Slow Release Hybrids Designed as Multitarget Cardioprotective Agents” (J Med Chem, 2016).

How the values were obtained:
[1] = system: Oryctolagus cuniculus; assay: Toxicity in New Zealand white rabbit myocardial ischemia/reperfusion injury model assessed as heart rate at 1.79 umol/kg, administered as single bolus dose at 20 mins of sustained ischemia in presence of NaHS (reference value: 276 +/- 9 bpm); format: organism-based; conditions: in vivo
[2] = system: Oryctolagus cuniculus; assay: Cardioprotective activity in New Zealand white rabbit myocardial ischemia/reperfusion injury model assessed as reduction in infarct size at 1.79 umol/kg, administered as single bolus dose at 20th min of sustained ischemia by TTC staining (reference value: 47.9 +/- 0.7 %); format: functional, Myocardium; parameters: scale not given: the % may be the effect or the level left
[3] = system: Oryctolagus cuniculus; assay: Toxicity in New Zealand white rabbit myocardial ischemia/reperfusion injury model assessed as mean blood pressure at 1.79 umol/kg, administered as single bolus dose at 180 mins of reperfusion (reference value: 60 +/- 4 mmHg); format: organism-based; conditions: in vivo, iv, 3 h
[4] = system: Oryctolagus cuniculus; assay: Toxicity in New Zealand white rabbit myocardial ischemia/reperfusion injury model assessed as mean blood pressure at 1.79 umol/kg, administered as single bolus dose at 20 mins of sustained ischemia in presence of NaHS (reference value: 64 +/- 5 mmHg); format: organism-based; conditions: in vivo, iv
[5] = system: Oryctolagus cuniculus; assay: Toxicity in New Zealand white rabbit assessed as baseline mean blood pressure at 1.79 umol/kg, administered as single bolus dose in presence of SPT (reference value: 74 +/- 5 mmHg); format: organism-based; conditions: in vivo
[6] = system: Oryctolagus cuniculus; assay: Toxicity in New Zealand white rabbit assessed as baseline mean blood pressure at 1.79 umol/kg, administered as single bolus dose in presence of NaHS (reference value: 74 +/- 5 mmHg); format: organism-based; conditions: in vivo
[7] = Induction of H2S release in potassium phosphate buffer at 100 uM at pH 7.4 by Amperometric method; format: physicochemical; conditions: pH 7.4, 100 µM
[8] = system: Oryctolagus cuniculus; assay: Toxicity in New Zealand white rabbit myocardial ischemia/reperfusion injury model assessed as mean blood pressure at 1.79 umol/kg, administered as single bolus dose at 20 mins of sustained ischemia (reference value: 64 +/- 5 mmHg); format: organism-based; conditions: in vivo
[9] = system: Oryctolagus cuniculus; assay: Cardioprotective activity in New Zealand white rabbit myocardial ischemia/reperfusion injury model assessed as reduction in infarct size at 1.79 umol/kg, administered as single bolus dose at 20th min of sustained ischemia by TTC staining in presence of NAHS (reference value: 47.9 +/- 0.7 %); format: functional, Myocardium; parameters: scale not given: the % may be the effect or the level left
[10] = system: Oryctolagus cuniculus; assay: Toxicity in New Zealand white rabbit assessed as heart weight at 1.79 umol/kg, administered as single bolus dose in presence of NaHS (reference value: 7.2 +/- 0.3 g); format: organism-based; conditions: in vivo
[11] = system: Oryctolagus cuniculus; assay: Toxicity in New Zealand white rabbit myocardial ischemia/reperfusion injury model assessed as mean blood pressure at 1.79 umol/kg, administered as single bolus dose at 180 mins of reperfusion in presence of NaHS (reference value: 60 +/- 4 mmHg); format: organism-based; conditions: in vivo, iv, 3 h
[12] = system: Oryctolagus cuniculus; assay: Toxicity in New Zealand white rabbit myocardial ischemia/reperfusion injury model assessed as mean blood pressure at 1.79 umol/kg, administered as single bolus dose at 180 mins of reperfusion in presence of SPT (reference value: 60 +/- 4 mmHg); format: organism-based; conditions: in vivo, 3 h
[13] = system: Oryctolagus cuniculus; assay: Toxicity in New Zealand white rabbit assessed as baseline mean blood pressure at 1.79 umol/kg, administered as single bolus dose (reference value: 74 +/- 5 mmHg); format: organism-based; conditions: in vivo
[14] = system: Oryctolagus cuniculus; assay: Toxicity in New Zealand white rabbit assessed as baseline heart rate at 1.79 umol/kg, administered as single bolus dose in presence of NaHS (reference value: 269 +/- 10 bpm); format: organism-based; conditions: in vivo
[15] = system: Oryctolagus cuniculus; assay: Toxicity in New Zealand white rabbit assessed as heart weight at 1.79 umol/kg, administered as single bolus dose (reference value: 7.2 +/- 0.3 g); format: organism-based; conditions: in vivo
[16] = system: Oryctolagus cuniculus; assay: Toxicity in New Zealand white rabbit assessed as baseline heart rate at 1.79 umol/kg, administered as single bolus dose (reference value: 269 +/- 10 bpm); format: organism-based; conditions: in vivo
[17] = system: Oryctolagus cuniculus; assay: Toxicity in New Zealand white rabbit myocardial ischemia/reperfusion injury model assessed as heart rate at 1.79 umol/kg, administered as single bolus dose at 180 mins of reperfusion in presence of non selective adenosine receptor inhibitor SPT (reference value: 254 +/- 11 bpm); format: organism-based; conditions: in vivo, 3 h
[18] = system: Oryctolagus cuniculus; assay: Toxicity in New Zealand white rabbit myocardial ischemia/reperfusion injury model assessed as heart rate at 1.79 umol/kg, administered as single bolus dose at 20 mins of sustained ischemia in presence of non selective adenosine receptor inhibitor SPT (reference value: 276 +/- 9 bpm); format: organism-based; conditions: in vivo
[19] = system: Oryctolagus cuniculus; assay: Toxicity in New Zealand white rabbit myocardial ischemia/reperfusion injury model assessed as heart rate at 1.79 umol/kg, administered as single bolus dose at 20 mins of sustained ischemia (reference value: 276 +/- 9 bpm); format: organism-based; conditions: in vivo
[20] = system: Oryctolagus cuniculus; assay: Toxicity in New Zealand white rabbit assessed as baseline heart rate at 1.79 umol/kg, administered as single bolus dose in presence of non selective adenosine receptor inhibitor SPT (reference value: 269 +/- 10 bpm); format: organism-based; conditions: in vivo
[21] = system: Oryctolagus cuniculus; assay: Toxicity in New Zealand white rabbit myocardial ischemia/reperfusion injury model assessed as heart rate at 1.79 umol/kg, administered as single bolus dose at 180 mins of reperfusion (reference value: 254 +/- 11 bpm); format: organism-based; conditions: in vivo, 3 h
[22] = system: Oryctolagus cuniculus; assay: Cardioprotective activity in New Zealand white rabbit myocardial ischemia/reperfusion injury model assessed as reduction in infarct size at 1.79 umol/kg, administered as single bolus dose at 20 mins before sustained ischemia by TTC staining in presence of non selective adenosine receptor inhibitor SPT (reference value: 47.9 +/- 0.7 %); format: functional, Myocardium; parameters: scale not given: the % may be the effect or the level left
[23] = system: Oryctolagus cuniculus; assay: Toxicity in New Zealand white rabbit assessed as heart weight at 1.79 umol/kg, administered as single bolus dose in presence of non selective adenosine receptor inhibitor SPT (reference value: 7.2 +/- 0.3 g); format: organism-based; conditions: in vivo
[24] = system: Oryctolagus cuniculus; assay: Toxicity in New Zealand white rabbit myocardial ischemia/reperfusion injury model assessed as heart rate at 1.79 umol/kg, administered as single bolus dose at 180 mins of reperfusion in presence of NaHS (reference value: 254 +/- 11 bpm); format: organism-based; conditions: in vivo, iv, 3 h
[25] = system: Oryctolagus cuniculus; assay: Toxicity in New Zealand white rabbit myocardial ischemia/reperfusion injury model assessed as mean blood pressure at 1.79 umol/kg, administered as single bolus dose at 20 mins of sustained ischemia in presence of non selective adenosine receptor inhibitor SPT (reference value: 64 +/- 5 mmHg); format: organism-based; conditions: in vivo, iv

Compound: NC(=O)c1ccc(OCCCCn2cnc3c(N)ncnc32)cc1
- Activity [1]: 272 bpm
- Activity [2]: 26.6%
- Activity [3]: 71 mmHg
- Activity [4]: 65 mmHg
- Activity [5]: 82 mmHg
- Activity [6]: 79 mmHg
- Activity [7]: Not Active
- Activity [8]: 75 mmHg
- Activity [9]: 22.3%
- Activity [10]: 7.4 g
- Activity [11]: 67 mmHg
- Activity [12]: 72 mmHg
- Activity [13]: 77 mmHg
- Activity [14]: 268 bpm
- Activity [15]: 7.3 g
- Activity [16]: 260 bpm
- Activity [17]: 268 bpm
- Activity [18]: 259 bpm
- Activity [19]: 258 bpm
- Activity [20]: 278 bpm
- Activity [21]: 262 bpm
- Activity [22]: 41.8%
- Activity [23]: 7.1 g
- Activity [24]: 252 bpm
- Activity [25]: 76 mmHg
